According to patent publication US11370775B2, “Substituted benzimidazole derivatives as D-amino acid oxidase (DAAO) inhibitors” (NATIONAL TAIWAN UNIVERSITY, priority 2016, dated 2022):

Experiments:
[1] = biological target: T1, DAO in SK-N-SH neuroblastoma cells (Homo sapiens, UniProt P14920); assay: Cell-based DAO assay in SK-N-SH cells; set-up: key to Relative DAO activity normalize to DMSO at Final Conc. 100 uM / Relative DAO activity normalize to DMSO at Final Conc. 10 uM: fraction of DMSO-control DAO activity (1 = DMSO); conditions: SK-N-SH 1.25*10^5 cells/well, drug treated for 3.5 hr; for IC50: 50 mM D-serine
T1 construct: endogenous in cells; host or cells: SK-N-SH neuroblastoma cells (ATCC)
T1 sequence (P14920 whole entry): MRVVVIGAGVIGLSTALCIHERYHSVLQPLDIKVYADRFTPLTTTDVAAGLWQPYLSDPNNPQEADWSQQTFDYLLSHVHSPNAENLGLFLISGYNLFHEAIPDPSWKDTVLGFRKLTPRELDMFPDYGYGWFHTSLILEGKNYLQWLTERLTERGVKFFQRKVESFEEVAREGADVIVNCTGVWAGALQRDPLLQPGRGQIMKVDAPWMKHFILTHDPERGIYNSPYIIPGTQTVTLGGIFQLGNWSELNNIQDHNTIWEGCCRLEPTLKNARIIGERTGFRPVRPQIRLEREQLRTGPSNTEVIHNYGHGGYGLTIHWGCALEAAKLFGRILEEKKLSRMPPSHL
Protocol: The SK-N-SH neuroblastoma cell line was purchased from American Type Culture Collection (ATCC). It was cultured in MEM media (Invitrogen/GIBCO, Rockville, Md.) supplemented with 10% fetal bovine serum, 1×NEAA (Invitrogen/GIBCO) at 37° C. with 5% CO2 in a humidified atmosphere. Cells were trypsinized and plated into a black 96-well plate (NUNC No. 237108) at a density of 125,000 cells/well in 50 μl before cell-based DAO assay.
The cellular DAO activity assay was using a method modified according to the report of Brandish et al. (Brandish, P. E., et al., A cell-based ultra-high-throughput screening assay for identifying inhibitors of D-amino acid oxidase. J Biomol Screen, 2006. 11(5): p. 481-7). SK-N-SH cells were suspended in assay buffers of HANKS buffer solution (Invitrogen/GIBCO No. 14025-092) with 20 mM HEPES. D-serine of (final concentration 50 mM) was added in each well as the substrate for DAO enzyme. The Amplex Red Hydrogen Peroxide/Proxidase Assay Kit (Molecular Probes/Invitrogen, cat. A22188) was used to measure H2O2 production which diffused across the cell membrane into the assay medium after DAO reaction. After seeding cells into black 96-well plate (Nunc No. 237108, Denmark), 50 μl of SK-N-SH cells (125,000 cells/well) was mixed with 50 μl drug solution (2.5 fold of interesting final concentration) and incubate at 37° C. with 5% CO2 in a humidified atmosphere for 30 minutes. After 30 minutes later, 25 μl of a 5 fold mixture containing D-serine, horseradish peroxidase (HRP), and Amplex Red was added into wells containing 100 μl of cell-drugs mixture and incubated at 37° C. with 5% CO2 in a humidified atmosphere for 3 hours. The final concentration of DMSO is below 1%. The fluorescence signal was then detected in SpectraMax M2e microplate reader (Molecular Devices, USA) with excitation at 544 nm and emission at 590 nm. The optimized assay buffer contained a final concentration of 50 mM D-serine, 0.625 units HRP, and 50 μM Amplex Red in a 125 μl assay volume.

porcine kidney DAO = biological target: T2, porcine kidney DAO (Sus scrofa, UniProt P00371); assay: pkDAO enzymatic assay (porcine kidney DAO IC50 assay); type: biochemical; conditions: D-alanine substrate, pH 8.3, 37° C., without FAD
T2 construct: purchased Sigma-Aldrich; host or cells: porcine kidney
T2 sequence (P00371 whole entry): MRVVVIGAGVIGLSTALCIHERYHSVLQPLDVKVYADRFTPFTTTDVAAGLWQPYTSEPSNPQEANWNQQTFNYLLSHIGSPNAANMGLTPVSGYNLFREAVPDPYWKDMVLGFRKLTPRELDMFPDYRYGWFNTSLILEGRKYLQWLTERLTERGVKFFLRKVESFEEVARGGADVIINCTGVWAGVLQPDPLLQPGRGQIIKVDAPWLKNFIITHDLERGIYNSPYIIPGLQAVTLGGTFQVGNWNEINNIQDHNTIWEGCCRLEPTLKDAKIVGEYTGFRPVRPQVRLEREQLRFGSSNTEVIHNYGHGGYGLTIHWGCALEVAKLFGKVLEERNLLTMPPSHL
Protocol: The DAAO enzymatic activity assay was modified according to the report of Oguri et al (Oguri, S., Screening of d-amino acid oxidase inhibitor by a new multi-assay method. Food chemistry 2007, 100 (2), 616). The DAAO activity was measured by using substrate D-alanine reaction produced hydrogen peroxide (H2O2) to further react with 3-(4-hydroxyphenyl) propionic acid (HPPA). The HPPA were oxidized by H2O2 and peroxidase to become the fluorogenic dimer which was measured to represent the activity of DAAO.
For porcine kidney DAO IC50 assay, the DAO substrate was prepared in 50 mM D-alanine (dissolved in 0.2 M Tris-HCl buffer, pH 8.3). A 100 μl of D-alanine solution was mixed with 4 μl (in 100% dimethyl sulfoxide, DMSO) of different concentrations of candidate compounds shown in tables below ranging from 48.83 μM, 97.66 μM, 195.31 μM, 390.63 μM, 781.25 μM, 1.56 mM, 3.13 mM, 6.25 mM, 12.50 mM, 25.00 mM, and 50.00 mM, with a final DMSO concentration of 0.167% in each reaction concentration. 10 μl of D-alanine and candidate compound mixture was incubated with 220 μl of Reaction Master Mix in black 96 well plate at 37° C. for 5 minutes. The Reaction Master Mix contained 110 μl of 5 U/mL porcine kidney DAO (Sigma-Aldrich, USA) solution (dissolved with 0.2 M Tris-HCl buffer, pH 8.3), 1.1 mL of 15 U/mL peroxidase solution (dissolved with 0.2 M Tris-HCl buffer, pH 8.3), 1.1 mL of 20 mM HPPA solution (dissolved with 0.2 M Tris-HCl buffer, pH 8.3), and 22 ml of 2 M Tris-HCl buffer (pH 8.3) for 110 reaction assays.
Fluorescence intensity (Fs) was measured at 405 nm by irradiation excitation at 320 nm. The higher the DAO enzymatic activity was, the higher the fluorescence intensity. The fluorometric inhibition indicator (Fi) was obtained from the following equation: Fi=(Fs-FDrug)/(FDMSO), where the fluorescent drug blank (FDrug) was measured in the drug mixture solution (using 0.2 M Tris HCl buffer, pH 8.3, without D-alanine). A DMSO blank (FDMSO) was measured under a 100% DMSO solution.
Although FAD is generally included in the reaction mixture in the D-amino acid oxidase assay since it easily dissociates from the holoenzyme, the present method was performed without FAD. The inhibitory effect of DAO inhibitors was compared by using inhibitory concentrations leading to 50% inhibition of DAAO activity (IC50). The IC50 values were calculated by nonlinear regression model using GraphPad Prism, version 5(GraphPad Software, Inc., La Jolla, Calif.).

| SMILES | Relative DAO activity normalize to DMSO at Final Conc. 10 uM [1] | Relative DAO activity normalize to DMSO at Final Conc. 100 uM [1] | IC50 [1] [µM] | IC50 (porcine kidney DAO) [µM] |
| --- | --- | --- | --- | --- |
| CCCCC(=O)Oc1ccc2[nH]c([S+]([O-])Cc3ncc(C)c(OC)c3C)nc2c1 (stereo not drawn) [compound 25016, 2-(((4-methoxy-3,5-dimethylpyridin-2-yl)methyl)sulfinyl)-1H-benzo[d]imidazol-5-yl pentanoate] | 1.00 | 0.62 | 188 | 13.4 |
| COc1c(C)cnc(C[S+]([O-])c2nc3cc(OC(=O)C=C(C)C)ccc3[nH]2)c1C (stereo not drawn) [compound 12125, 2-(((4-methoxy-3,5-dimethylpyridin-2-yl)methyl)sulfinyl)-1H-benzo[d]imidazol-5-yl 3-methylbut-2-enoate] | 0.80 | 0.50 | 122 | 13.3 |
| COc1c(C)cnc(C[S+]([O-])c2nc3cc(OC(=O)OC(C)(C)C)ccc3[nH]2)c1C (stereo not drawn) [compound 21132, tert-butyl (2-(((4-methoxy-3,5-dimethylpyridin-2-yl)methyl)sulfinyl)-1H-benzo[d]imidazol-5-yl)carbonate] | 0.94 | 0.61 | 175 | 64.2 |
| COc1c(C)cnc(C[S+]([O-])c2nc3cc(OC(C)=O)ccc3[nH]2)c1C (stereo not drawn) [compound 21122, 2-(((4-methoxy-3,5-dimethylpyridin-2-yl)methyl)sulfinyl)-1H-benzo[d]imidazol-5-yl acetate] | 0.99 | 0.50 | 149 | 21.1 |
| O=c1[nH]oc2ccc(Cl)cc12 [CBIO, reference compound] | 1.00 | 0.83 | 392 | 0.583 |
| COc1c(C)cnc(C[S+]([O-])c2nc3cc(OC(=O)c4ccco4)ccc3[nH]2)c1C (stereo not drawn) [compound 12122, 2-(((4-methoxy-3,5-dimethylpyridin-2-yl)methyl)sulfinyl)-1H-benzo[d]imidazol-5-yl furan-2-carboxylate] | 0.98 | 0.57 | 147 | 12.5 |
| COc1c(C)cnc(C[S+]([O-])c2nc3cc(OP(=O)(Oc4ccccc4)Oc4ccccc4)ccc3[nH]2)c1C (stereo not drawn) [compound 13084, 2-(((4-methoxy-3,5-dimethylpyridin-2-yl)methyl)sulfinyl)-1H-benzo[d]imidazol-5-yl diphenyl phosphate] | 0.71 | 0.49 | 34.9 | 181 |
| COc1c(C)cnc(C[S+]([O-])c2nc3cc(OC(=O)Cc4ccccc4)ccc3[nH]2)c1C (stereo not drawn) [compound 28094, 2-(((4-methoxy-3,5-dimethylpyridin-2-yl)methyl)sulfinyl)-1H-benzo[d]imidazol-5-yl 2-phenylacetate] | 1.10 | 0.58 | 121 | 21.1 |
| COc1c(C)cnc(C[S+]([O-])c2nc3cc(OC(=O)C4CCC4)ccc3[nH]2)c1C (stereo not drawn) [compound 25027, 2-(((4-methoxy-3,5-dimethylpyridin-2-yl)methyl)sulfinyl)-1H-benzo[d]imidazol-5-yl cyclobutanecarboxylate] | 1.15 | 0.69 | 240 | 21 |
| COc1ccc(C(=O)Oc2ccc3[nH]c([S+]([O-])Cc4ncc(C)c(OC)c4C)nc3c2)cc1 (stereo not drawn) [compound 11020, 2-(((4-methoxy-3,5-dimethylpyridin-2-yl)methyl)sulfinyl)-1H-benzo[d]imidazol-5-yl 4-methoxybenzoate] | 0.97 | 0.67 | 221 | 10.4 |
| COC(=O)c1ccc2c(c1)N=C(N(Cc1ncc(C)c(OC)c1C)Cc1ncc(C)c(OC)c1C)N(Cc1ccco1)C2 [compound 26072, Methyl 2-(bis((4-methoxy-3,5-dimethylpyridin-2-yl)methyl)amino)-3-(furan-2-ylmethyl)-3,4-dihydroquinazoline-7-carboxylate] | 0.87 | 0.74 | 393 | 236 |
| COc1c(C)cnc(CN(Cc2ncc(C)c(OC)c2C)c2nc3cc(C(=O)O)ccc3n2CCC2=CCCCC2)c1C [compound 21105, 2-(bis((4-methoxy-3,5-dimethylpyridin-2-yl)methyl)amino)-1-(2-(cyclohex-1-en-1-yl)ethyl)-1H-benzo[d]imidazole-5-carboxylic acid] | 0.89 | 0.58 | 219 | 301 |
| COC(=O)c1ccc2c(c1)N=C(NCc1ncc(C)c(OC)c1C)N(CCC1=CCCCC1)C2 [compound 21106, Methyl 3-(2-(cyclohex-1-en-1-yl)ethyl)-2-(((4-methoxy-3,5-dimethylpyridin-2-yl)methyl)amino)-3,4-dihydroquinazoline-7-carboxylate] | 1.02 | 0.77 | 478 | 488 |
| C/C=C\C(=O)Oc1ccc2[nH]c([S+]([O-])Cc3ncc(C)c(OC)c3C)nc2c1 (stereo not drawn) [compound 12124, 2-(((4-methoxy-3,5-dimethylpyridin-2-yl)methyl)sulfinyl)-1H-benzo[d]imidazol-5-yl (Z)-but-2-enoate] | 0.97 | 0.36 | 108 | 11.2 |
| COc1c(C)cnc(C[S+]([O-])c2nc3cc(OC(=O)C4CC4)ccc3[nH]2)c1C (stereo not drawn) [compound 28092, 2-(((4-methoxy-3,5-dimethylpyridin-2-yl)methyl)sulfinyl)-1H-benzo[d]imidazol-5-yl cyclopropanecarboxylate] | 0.94 | 0.58 | 136 | 46.7 |
